Source: patent US12496336B2 (priority 2019, dated 2025)

Tested on: H3N2 A/Hong Kong/1/1968 virus
Type: cell-based, influenza A virus

CC(=O)N[C@H]1[C@H]([C@H](O)[C@H](O)CO)OC(C(=O)O)=C[C@@H]1N=C(N)N [Zanamivir, zanamivir]
inhibition of cell-to-cell spread of the virus: efficient inhibition of cell-to-cell virus spread
